What was measured:
C. albicans ATCC 60193 = assay: Agar-well diffusion antimicrobial screening; format: cell-based, Candida albicans
[1] = Superoxide radical scavenging assay (NBT photo reduction method); conditions: pH 7.8, 30 °C, 10 min, 560 nm, mean ± S.D., triplicate
Description: Superoxide scavenging activity of the compounds and reference were tested in a non-enzymatic superoxide radical (O2^−•) generation assay using a modified spectrophotometrical nitro blue tetrazolium (NBT) photo reduction method. The total volume of the assay mixtures containing riboflavin (2 μM), methionine (13 mM), NBT ([…]), EDTA (0.1 mM), and the test samples (50 mM phosphate buffer, pH = 7.8) was 1 mL. After illuminating with a fluorescent lamp at 30 °C for 10 min., the absorbance of the samples (Asample) was measured at 560 nm. Assay mixture without the compound was used as control (control absorbance, Acontrol). All experiments were carried out in triplicate and results were expressed as the mean ± standard deviation (S.D.). Free O2^−• radical scavenging effect was calculated using Equation (1).

[2] = target: T1, Electric eel acetyl-cholinesterase enzyme (AchE, Type-VI-S; EC 3.1.1.7) (Electrophorus electricus, UniProt O42275); assay: biochemical; conditions: mean ± S.D. of three independent experiments; Tris-HCl pH 8.00, 412 nm
T1 construct: purchased Sigma-Aldrich Type-VI-S
Description: Firstly, all of the compounds stock solution in DMF (1 × 10^−3 M) were prepared and then five different concentrations were prepared from stock solution in buffer (Tris-HCI pH 8.00) for experiments. Briefly 50 µL of 50 mM Tris-HCl buffer (pH 8.00), 125 µL of 3 mM DTNB (in buffer), 25 µL of 0.2 U/mL AChE and 25 µL of sample dissolved in buffer and incubated for 15 min. at 25 °C. Fifteen minutes later, 25 µL of 15 mM acetyl thiocholine iodide were added and incubated 5 min. at room temperature. The reaction was initiated by the addition of acetylcholine iodide. The hydrolysis of this substrate was monitored by the formation of the yellow 5-thio-2-nitrobenzoate anion as a result of the reaction DTNB with thiocholine, catalized by enzyme at a wave length of 412 nm using a 96-well microplate reader (Multiskan Go UV-spectrophotometer, Thermo Fisher Scientific Oy Ratastie 2, Vantaa, Finland).
Inhibition of AChE was calculated by the comparison of reaction rates of the samples relative to the blank sample (DMF in phosphate buffer pH = 8) using the Equation (1) where Acontrol is the activity of enzyme without test sample and Asample is the activity of enzyme with test sample: (1) Scavenging effects (%)=[(Acontrol−Asample)/Acontrol]×100
The experiments were carried out in triplicate and IC50 values were examined.

[3] = DPPH radical scavenging assay; conditions: 0.1 mM methanolic DPPH, 30 min in the dark, 517 nm; mean ± S.D., triplicate
Description: Some 1,2,3-triazole compounds are known to act either as inhibitors of free radical production or as radical scavengers. Therefore, the potential antioxidant property of the new 1,2,3-trizole compounds was evaluated by determining their DPPH and SOD radical scavenging ability. DPPH is a stable free radical that accepts an electron or hydrogen radical to become a stable species. Due to its odd electron, DPPH gives a strong absorption band at 517 nm. Antioxidants are suitable reducing agents and neutralize the free radicals by pairing the DPPH odd electron with a hydrogen atom, and the DPPH solution turns yellow, observed as the decrease in absorbance at 517 nm.
The compounds were tested for in vitro antioxidant activities by the 2,2-diphenyl-1-picrylhydrazyl (DPPH) free radical scavenging assay method. The total volume of the assay mixtures containing methanolic DPPH solution (0.1 mM) and different concentrations of samples was 1 mL. After incubation in the dark at room temperature for 30 min., absorbance of the samples (Asample) was measured at 517 nm. Assay mixture without compound was used as control (control absorbance, Acontrol). All experiments were carried out in triplicate and results were expressed as the mean ±standard deviation (S.D.). Butylatedhydroxyanisole (BHA) were used as the reference compound. Free radical scavenging effect was calculated using Equation (1).

S. cerevisiae RSKK 251 = assay: Agar-well diffusion antimicrobial screening; format: cell-based, Saccharomyces cerevisiae

T1 sequence (O42275 24-633): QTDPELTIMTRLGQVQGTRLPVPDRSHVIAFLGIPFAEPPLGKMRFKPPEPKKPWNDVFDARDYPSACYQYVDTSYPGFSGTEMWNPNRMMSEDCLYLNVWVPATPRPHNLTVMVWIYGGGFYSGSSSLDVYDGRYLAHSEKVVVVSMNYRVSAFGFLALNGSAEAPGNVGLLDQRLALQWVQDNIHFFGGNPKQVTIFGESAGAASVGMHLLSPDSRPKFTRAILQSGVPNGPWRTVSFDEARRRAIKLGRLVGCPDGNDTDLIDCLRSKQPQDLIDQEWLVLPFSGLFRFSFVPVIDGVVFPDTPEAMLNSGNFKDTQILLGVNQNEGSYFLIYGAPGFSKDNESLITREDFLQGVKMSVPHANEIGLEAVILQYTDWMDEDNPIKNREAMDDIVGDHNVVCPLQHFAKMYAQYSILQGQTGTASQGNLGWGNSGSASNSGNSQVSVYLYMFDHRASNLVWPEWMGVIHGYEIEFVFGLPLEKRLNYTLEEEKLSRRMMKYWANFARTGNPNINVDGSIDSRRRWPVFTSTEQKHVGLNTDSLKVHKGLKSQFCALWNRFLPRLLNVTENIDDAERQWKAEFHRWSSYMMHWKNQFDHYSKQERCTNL

| Compound | Inhibition Zone Ca (C. albicans ATCC 60193) | SOD IC50 [1] | IC50 [2] | DPPH IC50 [3] | Inhibition Zone Sc (S. cerevisiae RSKK 251) |
| --- | --- | --- | --- | --- | --- |
| O=Cc1ccc(OCc2cn(CCCCCn3cc(COc4ccc(C=O)cc4)nn3)nn2)cc1 [Compound 4c, 4,4′-(((Pentane-1,5-diylbis(1H-1,2,3-triazole-1,4-diyl))bis(methylene))bis(oxy))dibenzaldehyde] | 6 mm | 60.32 (±0.07) µg/mL | 83.4 µM | 227.38 (±0.07) µg/mL |  |
| COc1cc(C=O)ccc1OCc1cn(CCCCn2cc(COc3ccc(C=O)cc3OC)nn2)nn1 [Compound 5b] |  | 109.17 (±0.10) µg/mL | 61.8 µM | 154.51 (±0.07) µg/mL |  |
| O=Cc1ccc(OCc2cn(CCCCn3cc(COc4ccc(C=O)cc4)nn3)nn2)cc1 [Compound 4b, 4,4′-(((Butane-1,4-diylbis(1H-1,2,3-triazole-1,4-diyl))bis(methylene))bis(oxy))dibenzaldehyde] | 6 mm | 121.74 (±0.08) µg/mL | 74.1 µM | 125.05 (±0.08) µg/mL |  |
| COc1cc(C=O)ccc1OCc1cn(CCCCCCn2cc(COc3ccc(C=O)cc3OC)nn2)nn1 [Compound 5d] |  | 157.14 (±0.07) µg/mL | 70.3 µM | 191.39 (±0.08) µg/mL |  |
| CC(=O)c1ccc(OCc2cn(CCCCCCCCCCn3cc(COc4ccc(C(C)=O)cc4)nn3)nn2)cc1 [Compound 2f, 1,1′-((((Decane-1,10-diylbis(1H-1,2,3-triazole-1,4-diyl))bis(methylene))bis(oxy))bis(4,1-phenylene))bis-(ethan-1-one)] |  | 88.15 (±0.06) µg/mL | 50.8 µM | 167.51 (±0.05) µg/mL |  |
| COc1cc(C=O)ccc1OCc1cn(CCCCCCCCn2cc(COc3ccc(C=O)cc3OC)nn2)nn1 [Compound 5e] |  | 188.84 (±0.08) µg/mL | 61.8 µM | 221.57 (±0.06) µg/mL |  |
| CC(=O)c1ccc(OCc2cn(CCCCCn3cc(COc4ccc(C(C)=O)cc4)nn3)nn2)cc1 [Compound 2c, 1,1′-((((Pentane-1,5-diylbis(1H-1,2,3-triazole-1,4-diyl))bis(methylene))bis(oxy))bis(4,1-phenylene))bis(ethan-1-one)] | 6 mm | 147.36 (±0.05) µg/mL | 67 µM | 175.65 (±0.06) µg/mL |  |
| O=Cc1ccc(OCc2cn(CCCCCCn3cc(COc4ccc(C=O)cc4)nn3)nn2)cc1 [Compound 4d, 4,4′-(((Hexane-1,6-diylbis(1H-1,2,3-triazole-1,4-diyl))bis(methylene))bis(oxy))dibenzaldehyde] |  | 82.77 (±0.11) µg/mL | 58.5 µM | 204.31 (±0.11) µg/mL |  |
| COc1cc(C=O)ccc1OCc1cn(CCCn2cc(COc3ccc(C=O)cc3OC)nn2)nn1 [Compound 5a] |  | 126.2 (±0.07) µg/mL | 74.7 µM | 150.03 (±0.08) µg/mL |  |
| COc1cc(C=O)ccc1OCc1cn(CCCCCn2cc(COc3ccc(C=O)cc3OC)nn2)nn1 [Compound 5c] |  | 145.68 (±0.11) µg/mL | 69.4 µM | 192.46 (±0.11) µg/mL |  |
| CC(=O)c1ccc(OCc2cn(CCCCn3cc(COc4ccc(C(C)=O)cc4)nn3)nn2)cc1 [Compound 2b, 1,1′-((((Butane-1,4-diylbis(1H-1,2,3-triazole-1,4-diyl))bis(methylene))bis(oxy))bis(4,1-phenylene))bis(ethan-1-one)] |  | 107.54 (±0.07) µg/mL | 52.3 µM | 158.72 (±0.05) µg/mL |  |
| 4-((1-(10-(4-((4-Formyl-2-methoxyphenoxy)methyl)-1H-1,2,3-triazol-1-yl)decyl)-1H-1,2,3-triazol-4-yl)-methoxy)-2-methoxybenzaldehyde [Compound 5f] |  |  |  |  | - |
| COc1ccc(O)c(C(C)(C)C)c1 [BHA, Butylatedhydroxyanisole, reference compound] |  |  |  | 98.56 (±0.08) µg/mL |  |
| COc1cc(C(C)=O)ccc1OCc1cn(CCCCn2cc(COc3ccc(C(C)=O)cc3OC)nn2)nn1 [Compound 3b, 1-(4-((1-(4-(4-((4-Acetyl-2-methoxyphenoxy)methyl)-1H-1,2,3-triazol-1-yl)butyl)-1H-1,2,3-triazol-4-yl)-methoxy)-2-methoxyphenyl)ethan-1-one] |  | 51.37 (±0.07) µg/mL | 57 µM | 113.63 (±0.05) µg/mL |  |
| CC(=O)c1ccc(OCc2cn(CCCn3cc(COc4ccc(C(C)=O)cc4)nn3)nn2)cc1 [Compound 2a, 1,1′-((((Propane-1,3-diylbis(1H-1,2,3-triazole-1,4-diyl))bis(methylene))bis(oxy))bis(4,1-phenylene))bis(ethan-1-one)] |  | 45.12 (±0.04) µg/mL | 64.7 µM | 155.49 (±0.08) µg/mL |  |
| CC(=O)c1ccc(OCc2cn(CCCCCCn3cc(COc4ccc(C(C)=O)cc4)nn3)nn2)cc1 [Compound 2d, 1,1′-((((Hexane-1,6-diylbis(1H-1,2,3-triazole-1,4-diyl))bis(methylene))bis(oxy))bis(4,1-phenylene))bis(ethan-1-one)] | 6 mm | 154.79 (±0.06) µg/mL | 62.4 µM | 152.84 (±0.05) µg/mL |  |
| CC(=O)c1ccc(OCc2cn(CCCCCCCCn3cc(COc4ccc(C(C)=O)cc4)nn3)nn2)cc1 [Compound 2e, 1,1′-((((Octane-1,8-diylbis(1H-1,2,3-triazole-1,4-diyl))bis(methylene))bis(oxy))bis(4,1-phenylene))bis(ethan-1-one)] |  | 131.43 (±0.06) µg/mL | 66.4 µM | 222.16 (±0.07) µg/mL |  |
| O=Cc1ccc(OCc2cn(CCCCCCCCn3cc(COc4ccc(C=O)cc4)nn3)nn2)cc1 [Compound 4e, 4,4′-(((Octane-1,8-diylbis(1H-1,2,3-triazole-1,4-diyl))bis(methylene))bis(oxy))dibenzaldehyde] | 6 mm | 88.86 (±0.09) µg/mL | 63.4 µM | 192.04 (±0.09) µg/mL |  |
| O=Cc1ccc(OCc2cn(CCCCCCCCCCn3cc(COc4ccc(C=O)cc4)nn3)nn2)cc1 [Compound 4f, 4,4′-(((Decane-1,10-diylbis(1H-1,2,3-triazole-1,4-diyl))bis(methylene))bis(oxy))dibenzaldehyde] |  | 93.47 (±0.09) µg/mL | 62.5 µM | 210.33 (±0.08) µg/mL |  |
| COc1cc(C(C)=O)ccc1OCc1cn(CCCn2cc(COc3ccc(C(C)=O)cc3OC)nn2)nn1 [Compound 3a] | 6 mm | 120.53 (±0.04) µg/mL | 63.3 µM | 141.57 (±0.08) µg/mL |  |
| COc1cc(C(C)=O)ccc1OCc1cn(CCCCCCCCCCn2cc(COc3ccc(C(C)=O)cc3OC)nn2)nn1 [Compound 3f] |  | 98.35 (±0.06) µg/mL | 78.6 µM | 207.57 (±0.09) µg/mL |  |
| O=Cc1ccc(OCc2cn(CCCn3cc(COc4ccc(C=O)cc4)nn3)nn2)cc1 [Compound 4a, 4,4′-(((Propane-1,3-diylbis(1H-1,2,3-triazole-1,4-diyl))bis(methylene))bis(oxy))dibenzaldehyde] |  | 55.67 (±0.08) µg/mL | 62.8 µM | 192.02 (±0.12) µg/mL |  |
| COc1cc(C(C)=O)ccc1OCc1cn(CCCCCn2cc(COc3ccc(C(C)=O)cc3OC)nn2)nn1 [Compound 3c] |  | 284.10 (±0.07) µg/mL | 75.7 µM | 188.45 (±0.11) µg/mL |  |

From publication PMC6274262, “Synthesis of Novel Symmetrical 1,4-Disubstituted 1,2,3-Bistriazole Derivatives via ‘Click Chemistry’ and Their Biological Evaluation” (Molecules, 2016)
